Target: Enoyl acyl carrier protein (ACP) reductase (InhA) (Mycobacterium tuberculosis, UniProt P9WGR1)
Test: colorimetric InhA assay, NADH oxidation at […] nm with 2-trans-octanoyl-CoA
Format: biochemical

Sequence of Enoyl acyl carrier protein (ACP) reductase (InhA) (P9WGR1 whole entry, looked up): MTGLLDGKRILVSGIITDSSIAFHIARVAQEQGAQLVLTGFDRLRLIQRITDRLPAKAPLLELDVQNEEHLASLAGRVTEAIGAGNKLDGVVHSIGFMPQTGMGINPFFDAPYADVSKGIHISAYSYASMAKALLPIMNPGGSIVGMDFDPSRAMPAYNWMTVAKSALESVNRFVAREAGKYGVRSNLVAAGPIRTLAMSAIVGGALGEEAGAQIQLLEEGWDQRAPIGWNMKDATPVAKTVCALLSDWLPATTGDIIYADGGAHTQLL

SMILES: C/C(=N\NS(=O)(=O)c1ccc(C)cc1)c1c(O)c2ccccc2oc1=O [compound 3]
- IC50: 1620 ± 690 nM

SMILES: CC(=NNS(=O)(=O)c1ccc(C)cc1)c1ccccn1 [compound 7]
- IC50: 910 ± 30 nM

Source: PMC11418391, “Benzenesulfonohydrazide-tethered non-fused and fused heterocycles as potential anti-mycobacterial agents targeting enoyl acyl carrier protein reductase (InhA) with antibiofilm activity” (RSC Advances, 2024)
